Results taken from ChEMBL document CHEMBL1201862, “PubChem BioAssay data set” (2004).
Where a name gives a salt, the structure may show the parent alone. Active and inactive are the calls of the source.

What was measured:
[1] = Shn3 3'UTR reporter inhibitors, dose response, cell-based, Clone20 osteoblasts, firefly luciferase, cherry-picked (AID 624132); format: functional;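 also: firefly luciferase luminescence from reporter carrying the Shn3 3'UTR in osteoblasts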
[2] = HepG2 cell cytotoxicity, dose response, cytotoxicity control for Shn3 inhibitor project, CellTiter-Glo, cherry-picked (AID 624134); format: functional, cell-based
[3] = control 3'UTR Renilla luciferase suppression, dose response, counter-screen for Shn3 inhibitor project, cell-based, Clone20-Shn3RL, cherry-picked (AID 624133); format: functional
[4] = reduction of Shn3 3'UTR firefly luciferase signal, dose response, Schnurri-3 inhibitor project, cell-based, Clone20 osteoblasts, cherry-pick, set 2 (AID 720490); format: functional;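 also: actives lower the luminescence signal as inhibitors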
[5] = biological target: Prothrombin (Homo sapiens, UniProt P00734); test: Thrombin 1536 HTS Dose Response Confirmation. [Related pubchem assays: 1046 (Thrombin 1536 HTS; hits were confirmed in this assay)]; format: functional
[6] = biological target: Solute carrier family 12 member 2/member 5 (Homo sapiens, UniProt P55011+Q9H2X9); test: KCC2 and NKCC1 inhibition by rubidium flux, cell-based, NKCC1 counter-screen (AID 1734); format: functional, HEK293
[7] = biological target: T1, Small ubiquitin-related modifier 1 (Homo sapiens, UniProt P63165); test: inhibitors of SUMO1 peptide binding, dose response, biochemical, fluorescence polarization, uHTS hits (AID 624382); format: functional; settings: read-out: IC50_Mean
T1 sequence (P63165 whole entry): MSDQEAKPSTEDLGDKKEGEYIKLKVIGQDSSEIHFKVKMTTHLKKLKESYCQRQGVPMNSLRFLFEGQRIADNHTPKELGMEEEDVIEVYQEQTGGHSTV

[8] = biological target: T1, Small ubiquitin-related modifier 1; test: inhibitors of SUMO1 partner interactions, dose response, biochemical, FRET (AID 624383); format: functional; settings: read-out: IC50_Mean
[9] = biological target: Kallikrein-7 (Homo sapiens, UniProt P49862); test: Fluorescence Intensity-based biochemical primary high throughput dose response assay to identify activators of kallikrein-7 (K7) zymogen.
Sequence of Kallikrein-7 (P49862 whole entry): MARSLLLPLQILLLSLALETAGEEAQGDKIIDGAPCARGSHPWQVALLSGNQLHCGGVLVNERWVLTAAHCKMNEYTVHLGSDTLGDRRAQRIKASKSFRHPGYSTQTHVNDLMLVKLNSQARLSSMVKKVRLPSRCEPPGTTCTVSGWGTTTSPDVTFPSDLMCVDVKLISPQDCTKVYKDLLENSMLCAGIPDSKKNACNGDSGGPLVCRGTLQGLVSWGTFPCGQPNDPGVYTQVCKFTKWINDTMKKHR

[10] = biological target: Paired box protein Pax-8 (Homo sapiens, UniProt Q06710); test: inhibitors of PAX8-driven TPO luciferase reporter, dose response, RMG-I cells, cherry-pick (AID 687027); format: functional, cell-based;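 also: luciferase reporter driven by Pax8 target thyroperoxidase promoter measured by SteadyGlo luminescence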
Sequence of Paired box protein Pax-8 (Q06710 whole entry): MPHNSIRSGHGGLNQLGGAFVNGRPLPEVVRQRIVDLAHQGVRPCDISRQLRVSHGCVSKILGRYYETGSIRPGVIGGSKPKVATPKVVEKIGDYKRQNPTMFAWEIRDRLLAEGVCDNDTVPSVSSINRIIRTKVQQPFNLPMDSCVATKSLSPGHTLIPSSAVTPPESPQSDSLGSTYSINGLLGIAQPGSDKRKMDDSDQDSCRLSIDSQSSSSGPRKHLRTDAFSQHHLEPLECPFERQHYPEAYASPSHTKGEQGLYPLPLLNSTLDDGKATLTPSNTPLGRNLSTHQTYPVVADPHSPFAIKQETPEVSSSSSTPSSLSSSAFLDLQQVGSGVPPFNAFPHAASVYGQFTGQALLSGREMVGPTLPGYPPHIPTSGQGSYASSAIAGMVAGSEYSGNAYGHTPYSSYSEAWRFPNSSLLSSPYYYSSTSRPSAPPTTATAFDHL

[11] = P. falciparum Dd2 growth inhibitors, dose response, SYBR Green, dry powder samples, set 9 (AID 1159568); format: functional, cell-based
[12] = biological target: T2, Oxysterols receptor LXR-beta (Homo sapiens, UniProt P55055); format: functional, cell-based;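 also: Cell-based luminescence dose-response assay of agonist activity at LXR, run as a confirmatory counterscreen to a daf-12 agonist screen; HEK293 cells with Gal4-LXR fusion and GAL4-driven luciferase reporter; agonist potency from rising luciferase signal of a Gal4-LXR reporter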
T2 sequence (P55055 whole entry): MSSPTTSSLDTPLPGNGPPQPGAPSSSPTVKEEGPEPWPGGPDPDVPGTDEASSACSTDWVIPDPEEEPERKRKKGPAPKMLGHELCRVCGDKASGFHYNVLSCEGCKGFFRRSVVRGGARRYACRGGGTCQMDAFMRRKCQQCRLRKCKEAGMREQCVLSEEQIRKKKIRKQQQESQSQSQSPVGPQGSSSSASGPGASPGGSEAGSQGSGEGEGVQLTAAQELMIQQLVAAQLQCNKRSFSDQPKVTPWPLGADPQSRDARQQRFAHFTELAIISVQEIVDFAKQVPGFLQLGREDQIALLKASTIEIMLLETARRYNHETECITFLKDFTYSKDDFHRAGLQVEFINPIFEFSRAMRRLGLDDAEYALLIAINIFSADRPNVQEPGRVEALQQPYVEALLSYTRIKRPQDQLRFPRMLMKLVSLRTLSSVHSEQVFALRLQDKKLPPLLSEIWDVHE

[13] = cells
[14] = Dose-response inhibition of insulin secretion in a rat insulinoma line at 5 mM glucose (AID 1117331); format: functional, cell-based; settings: INS-1E
[15] = P. falciparum Dd2 growth inhibitors, dose response, SYBR Green, cherry-picked samples (AID 1159567); format: functional, cell-based
[16] = HepG2 cell cytotoxicity, dose response, cytotoxicity control, cherry-picked samples (AID 1159577); format: functional, cell-based
[17] = inhibitors of intracellular T. cruzi replication, confirmation, NIH3T3 host cells, beta-gal luminescence (AID 2044); format: functional, cell-based;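 also: intracellular parasites grown in NIH/3T3 mouse fibroblasts as host cells; luminescent beta-galactosidase reporter signal from transgenic T. cruzi replicating inside host cells; inhibitors lower the luminescence signal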
[18] = cytotoxicity toward NIH3T3 fibroblasts, dose response, counter-screen, cell-based, ATP luminescence, mouse fibroblasts (AID 2010); format: functional;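 also: cells exposed to compound for about 90 hours before reading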
[19] = cells; remark: listed apart in the source

For `COc1cccc(-n2c(C)nc3c(cnn3-c3ccc(Cl)cc3)c2=O)c1`, the AC50 [1] was 0.391 µM (active), the AC50 [2] was 61.4 µM (active) and the AC50 [3] was 2.98 µM (active). The AC50 [4] was 2.14 µM (active).
For `O=C(NC(=S)Nn1cnnc1)c1ccccc1Cl`, the IC50 [5] was > 50 µM (not active).
In the case of `CN(Cc1ccccc1)S(=O)(=O)c1ccc(Cl)c(C(=O)NCCc2ccccn2)c1`, the IC50 [6] is reported as 2.5 µM (active).
For `O=C(Cc1cc(=O)oc2cc(O)ccc12)NN=Cc1ccc(N(CCCl)CCCl)cc1`, the IC50 [7] was > 66.6 µM (inactive), the IC50 [8] was 8.3 µM (active) and the EC50 [9] was > 23.2 µM (inactive).
For `Cc1cccn2c(=O)c3cc(C(=O)N4CCOCC4)n(C)c3nc12`, the EC50 [9] was > 2.58 µM (active).
With `C[C@@H]1CN([C@@H](C)CO)C(=O)c2cc(N(C)C)ccc2O[C@@H](C)CCCCO[C@H]1CN(C)S(=O)(=O)c1ccc(F)cc1` the AC50 [10] was 6.76 µM (active) and the AC50 [11] was 19.4 µM (active).
For `CCOC(=O)c1cc(-c2cccc(O)c2)oc1C`, the EC50 [12] was > 67.5 µM (inactive) and the EC50 [13] was > 67.5 µM (inactive).
In the case of `C[C@@H](C1=C(CCN(C)C)Cc2ccccc21)c1ccccn1`, the IC50 [14] is reported as 8.41 µM (inactive).
For `COc1cc(CN2C[C@@H]3N[C@H](C2)[C@H]3c2ccc(/C=C/c3ccccc3)cc2)cc(OC)c1`, the AC50 [15] was 2.11 µM (active) and the AC50 [16] was 7.85 µM (active).
In the case of `C(=C\c1ccc([C@@H]2[C@@H]3CN(Cc4nccs4)C[C@H]2N3)cc1)/c1ccccc1`, the AC50 [15] is reported as 3.67 µM (active) and the AC50 [16] is reported as 7.83 µM (active).
For `O=C(N/N=C/c1ccc([N+](=O)[O-])o1)c1cn(-c2ccccc2)nc1-c1ccccc1`, the EC50 [17] was < 0.1 µM (active), the EC50 [18] was > 60 µM (not active) and the EC50 [19] was 0.054 µM (active).
With `C[C@@H]1CCCCO[C@@H](CN(C)S(=O)(=O)c2ccc(F)cc2)[C@H](C)CN([C@H](C)CO)C(=O)c2cc(N(C)C)ccc2O1` the AC50 [11] was 4.62 µM (active).
For `CCN1CCCC(OC(=O)C(c2ccccc2)c2ccccc2)C1` (centres undefined) [PIPERIDOLATE HYDROCHLORIDE], the IC50 [14] was 18.2 µM (inactive).
